Test results from patent publication US20070065366A1, “Pharmaceutical formulations comprising a long-acting beta2-agonist for administration by nebulisation” (Chiesi Farmaceutici S.p.A., priority 2005, published 2007).

Assays:
[1] = First stability study of CHF 4226 solutions, pH 3.0 to 6.0 adjusted with different agents (HPLC); assay type: physicochemical; conditions: for stability (total impurities/degradation products): compared with not stable, higher than 5% after 1 month accelerated
Procedure: Stability studies in different conditions of pH were carried out.
The amount of the main degradation products and the total impurities and degradation products of CHF 4226 were determined by HPLC.
Total impurities and degradation products comprise the starting impurities present in the drug, the main degradation products and other minor degradation products forming during storage.
In a first study, the effect of the pH in a rather broad range comprised between 3.0 and 6.0 adjusted with different kind of agents was investigated.
The different formulations were stored under long term (25° C., 60% R.H.) and accelerated (40° C., 75% R.H.) conditions for three months.

[2] = Stability of CHF 4226 in aqueous solution, pH 4.0 to 5.5, buffers comprising citric acid at different concentrations (HPLC); assay type: physicochemical; conditions: pH interval between 4.0 and 5.0, 40° C., 75% R.H.
Procedure: The chemical stability of CHF 4226 was then investigated in the pH interval comprised from 4.0 to 5.5 adjusted with buffers comprising citric acid at different concentrations.
The different formulations were stored under accelerated conditions (40° C., 75% R.H.) for at least four months.
Various liquid, propellant-free formulations comprising 0.001% w/v CHF 4226 were prepared according the procedure described in the Example 1 except that sodium chloride was not added in order to better appreciate the effect of the buffer concentration on the chemical stability.
The pH was adjusted in the interval comprised between 4.0 and 5.5 with buffers consisting of different relative percentages of the citric acid/sodium citrate couple or the citric acid/dibasic sodium phosphate couple. Each formulation was distributed in 20 ml glass vials.
The stability of the formulations was evaluated under accelerated conditions (40° C., 75% R.H.) for at least four months.
The impurities/degradation products of CHF 4226 were determined by HPLC using the experimental conditions reported in the Example 2.

[3] = cited from earlier work

Question: With `COc1ccc(C[C@@H](C)NC[C@H](O)c2ccc(O)c3[nH]c(=O)ccc23)cc1` [CHF 4226, 8-hydroxy-5-[(1R)-1-hydroxy-2-[[(1R)-2-(4-methoxyphenyl)-1-methylethyl]amino]ethyl]-2(1H)-quinolinone] as the molecule, how does the “chemical stability in aqueous solution” value ([1]; pH 4.5±0.1, citrate buffer about 19 mM, compared with other pH/agents, 25° C./60% R.H. and 40° C./75% R.H., three months) read?
Answer: chemically more stable

Question: What about the “stability (total impurities/degradation products)” value ([1]; phosphoric acid, pH 3.0) of the same molecule?
Answer: analogous behavior

Question: And the “stability (total impurities/degradation products)” value ([1]; phosphoric acid/phosphate buffer, pH 6.0)?
Answer: analogous behavior

Question: And the chemical stability [2]?
Answer: improved

Question: Which results are given for `CCC(NC(C)C)C(O)c1ccc(O)c2[nH]c(=O)ccc12` (stereo not shown) [procaterol]?
Answer: stability in solution ([3]; pH 4.0 to 6.0, acetate or acetate/phosphate buffer, protected from air): more stable at more acidic pHs; effect of ferric ions on the auto-oxidation rate ([3]; presence of ferric ions, except the solution at pH 6.0 (acetate and phosphate buffer)): increased the auto-oxidation rate; pH at which the lowest degradation rate was obtained ([3]; solutions at pH 4.0, 4.5, 5.0, 5.5 and 6.0): 4.0
